{
  "source": "patent US7384789B2",
  "about": "“Divalent metal ion sensors and binders” (The University of North Dakota, priority 2006, dated 2008)",
  "key": {"[1]": {"details": "Cai et al., Inorg. Chim. Acta 1997; cited from earlier work"}, "[2]": {"test": "Fluorescence emission profile with stoichiometric divalent metal ion: Zn^2+", "details": "for effect of Zn^2+ on fluorescence emission intensity: stoichiometric ion, λex/λem: compound 1 300/390 nm, compound 3 315/357 nm, compound 4 365/520 nm", "description": "(§1) Commercially available reagents, obtained from Acros Organics and Aldrich were used as received. All solvents were distilled before use. Reactions were monitored by thin-layer chromatography (TLC) and visualization was accomplished with a UV lamp. Reaction mixtures were purified by column chromatography, performed with the indicated solvents using silica gel (230-400 mesh). The Rf values were calculated based on the eluents used for purification. The yields reported refer to chromatographically and spectroscopically pure compounds. The purity of the compounds were ascertained by GC/MS analysis (HP 5890 Series II GC fitted with HP 5971 Series Mass Selective Detector). ^1H and proton decoupled ^13C NMR spectra were recorded on a Bruker AMX 500 MHz spectrometer at ambient temperature. The fluorescence spectra were obtained using Jobin Yvon Horiba Fluorolog-3 spectrofluorometer. The HEPES buffer was prepared from commercially available 1M solution of the free acid and the pH was adjusted to 7.0 by the addition of KOH pellets in the presence of 0.135 M NaCl. The fluorescence measurements were carried out on 3 mL samples of the sensor and 3 μL aliquots of the 200 mM metal ion solution in HEPES were added to the sample to make up the desired metal concentrations.\n(§2) The influence of divalent metal ions on the fluorescence spectral profile of compound 1 is shown in FIG. 1, where the fluorescence emission spectra of 200 μM compound 1 (λex=300 nm) with stoichiometric concentrations of selected divalent metal ions. Compound 1 has a weak fluorescence emission peak around 386-390 nm, which is differently affected by different metal ions. […] In contrast, the fluorescence intensity of compound 1 decreases in the presence of Cu^2+, Ni^2+, and Co^2+.\nThe influence of divalent metal ions on the fluorescence spectral profile of compound 3 is shown in FIG. 3, where the fluorescence emission spectra of 200 μM […] (λex=315 nm) with stoichiometric concentrations of selected divalent metal ions. Compound 3 has a weak fluorescence emission peak around 355-360 nm, which is differently affected by different metal ions. […] In contrast, as expected, the fluorescence intensity of compound 3 decreases in the presence of Cu^2+, Ni^2+, and Co^2+. […] Titration of compound 3 with Zn^2+ indicates a Kd value of 2 mM (approx.).\nThe influence of divalent metal ions on the fluorescence spectral profile of compound is shown in FIG. 4, where the fluorescence emission spectra of 200 μM […] (λex=365 nm) with stoichiometric concentrations of selected divalent metal ions. Compound 4 has a UV absorption maximum at 425 nm. […] Excitation at shorter wavelengths e.g. at 365 nm leads to a weak emission peak around 520 nm, which is differently affected by different metal ions."}, "[3]": {"test": "Fluorescence emission profile with stoichiometric divalent metal ion: Mg^2+", "details": "200 μM compound, λex/λem: compound 1 300/390 nm, compound 3 315/357 nm, compound 4 365/520 nm", "description": "as §1, with “The HEPES buffer was prepared from commercially available 1M solution of the free acid and the pH was adjusted to 7.0 by the addition of KOH pellets in the presence of 0.135 M NaCl.” left out\nas §2\n(§3) The influence of divalent metal ions on the fluorescence spectral profile of compound 3 is shown in FIG. 3, where the fluorescence emission spectra of 200 μM […] (λex=315 nm) with stoichiometric concentrations of selected divalent metal ions. Compound 3 has a weak fluorescence emission peak around 355-360 nm, which is differently affected by different metal ions. […] In contrast, as expected, the fluorescence intensity of compound 3 decreases in the presence of Cu^2+, Ni^2+, and Co^2+. […]"}, "[4]": {"test": "Fluorescence emission profile with stoichiometric divalent metal ion: Ca^2+", "details": "200 μM compound, λex/λem: compound 1 300/390 nm, compound 3 315/357 nm, compound 4 365/520 nm", "description": "as §1, with “The HEPES buffer was prepared from commercially available 1M solution of the free acid and the pH was adjusted to 7.0 by the addition of KOH pellets in the presence of 0.135 M NaCl.” left out\nas §2, §3"}, "[5]": {"test": "Fluorescence emission profile with stoichiometric divalent metal ion: Cu^2+", "details": "200 μM compound, λex/λem: compound 1 300/390 nm, compound 3 315/357 nm, compound 4 365/520 nm", "description": "as §1, with “The HEPES buffer was prepared from commercially available 1M solution of the free acid and the pH was adjusted to 7.0 by the addition of KOH pellets in the presence of 0.135 M NaCl.” left out\nas §2, §3"}, "[6]": {"test": "Fluorescence emission profile with stoichiometric divalent metal ion: Ni^2+", "details": "200 μM compound, λex/λem: compound 1 300/390 nm, compound 3 315/357 nm, compound 4 365/520 nm", "description": "as §1, with “The HEPES buffer was prepared from commercially available 1M solution of the free acid and the pH was adjusted to 7.0 by the addition of KOH pellets in the presence of 0.135 M NaCl.” left out\nas §2, §3"}, "[7]": {"test": "Fluorescence emission profile with stoichiometric divalent metal ion: Co^2+", "details": "200 μM compound, λex/λem: compound 1 300/390 nm, compound 3 315/357 nm, compound 4 365/520 nm", "description": "as §1, with “The HEPES buffer was prepared from commercially available 1M solution of the free acid and the pH was adjusted to 7.0 by the addition of KOH pellets in the presence of 0.135 M NaCl.” left out\nas §2, §3"}, "Solubility": {"test": "Solubility", "assay_type": "physicochemical", "details": "for solubility: solvent not given"}, "[8]": {"test": "Spectrofluorometric titration of compound with Zn^2+ (ZnCl2)", "assay_type": "binding", "details": "approx.", "description": "as §1, with “The HEPES buffer was prepared from commercially available 1M solution of the free acid and the pH was adjusted to 7.0 by the addition of KOH pellets in the presence of 0.135 M NaCl.” left out\nTo determine the magnitude of Zn^2+ induced fluorescence spectral changes of compound 1 as well as its binding affinity, a detailed spectrofluorometric titration study was performed."}, "[9]": {"test": "Fluorescence emission profile with stoichiometric divalent metal ion: Cd^2+", "details": "200 μM compound, λex/λem: compound 3 315/357 nm, compound 4 365/520 nm", "description": "as §1, with “The HEPES buffer was prepared from commercially available 1M solution of the free acid and the pH was adjusted to 7.0 by the addition of KOH pellets in the presence of 0.135 M NaCl.” left out\n(§4) The influence of divalent metal ions on the fluorescence spectral profile of compound 3 is shown in FIG. 3, where the fluorescence emission spectra of 200 μM compound 1 (λex=315 nm) with stoichiometric concentrations of selected divalent metal ions. […]"}, "[10]": {"test": "Fluorescence emission profile with stoichiometric divalent metal ion: Hg^2+", "details": "200 μM compound, λex/λem: compound 3 315/357 nm, compound 4 365/520 nm", "description": "as §1, with “The HEPES buffer was prepared from commercially available 1M solution of the free acid and the pH was adjusted to 7.0 by the addition of KOH pellets in the presence of 0.135 M NaCl.” left out\nas §4"}},
  "note": "pKd: −log10 of the molar value.",
  "data": [
    {"compound": "Cc1cc(N(CC(=O)O)CC(=O)O)c(O)c(N(CC(=O)O)CC(=O)O)c1", "note": "[N,N,N′,N′-tetrakis(carboxylatemethyl)-2,6-diaminocresol]", "values": [
      {"measurement": "divalent metal binding", "setting": "[1]", "value": "binding to only Co^2+ or Cu^2+"}
    ]},
    {"compound": "COc1c(N(CC(=O)[O-])CC(=O)[O-])cc(C)cc1N(CC(=O)[O-])CC(=O)[O-].[K+].[K+].[K+].[K+]", "note": "[compound 1, Potassium-2,6-diamino-(N,N,N′,N′-tetraacetate)-4-methylanisole]", "values": [
      {"measurement": "effect of Zn^2+ on fluorescence emission intensity", "setting": "[2]; 200 μM compound", "value": "most dramatic effect"},
      {"measurement": "Zn^2+-induced fluorescence enhancement in the presence of excess Ca^2+", "setting": "[2]; 100 fold excess of Ca^2+", "value": "maintained"},
      {"measurement": "increase of fluorescence emission intensity in the presence of Zn^2+", "setting": "[2]; stoichiometric concentration of Zn^2+, 200 μM compound, λex=300 nm", "value": "about 10 fold"},
      {"measurement": "effect of Mg^2+ on fluorescence emission intensity", "setting": "[3]", "value": "barely affected"},
      {"measurement": "effect of Ca^2+ on fluorescence emission intensity", "setting": "[4]", "value": "only slightly increased"},
      {"measurement": "effect of Cu^2+ on fluorescence emission intensity", "setting": "[5]", "value": "decreases"},
      {"measurement": "effect of Ni^2+ on fluorescence emission intensity", "setting": "[6]", "value": "decreases"},
      {"measurement": "effect of Co^2+ on fluorescence emission intensity", "setting": "[7]", "value": "decreases"},
      {"measurement": "solubility in the aqueous medium", "setting": "Solubility; aqueous medium", "value": "high solubility"},
      {"measurement": "solubility", "setting": "Solubility", "value": "readily soluble"}
    ]},
    {"compound": "O=C([O-])CN(CC(=O)[O-])c1cccc(N(CC(=O)[O-])CC(=O)[O-])c1.[Na+].[Na+].[Na+].[Na+]", "note": "[compound 3, Sodium 1,3-diamino-(N,N,N′,N′-tetraacetate)benzene]", "values": [
      {"measurement": "pKd", "setting": "[8]", "value": "~2.70"},
      {"measurement": "effect of Zn^2+ on fluorescence emission intensity", "setting": "[2]; 200 μM compound", "value": "enhanced significantly"},
      {"measurement": "effect of Mg^2+ on fluorescence emission intensity", "setting": "[3]", "value": "slightly enhanced"},
      {"measurement": "effect of Ca^2+ on fluorescence emission intensity", "setting": "[4]", "value": "slightly enhanced"},
      {"measurement": "effect of Cu^2+ on fluorescence emission intensity", "setting": "[5]", "value": "decreases"},
      {"measurement": "effect of Ni^2+ on fluorescence emission intensity", "setting": "[6]", "value": "decreases"},
      {"measurement": "effect of Co^2+ on fluorescence emission intensity", "setting": "[7]", "value": "decreases"},
      {"measurement": "effect of Cd^2+ on fluorescence emission intensity", "setting": "[9]", "value": "slightly enhanced"},
      {"measurement": "effect of Hg^2+ on fluorescence emission intensity", "setting": "[10]", "value": "slightly enhanced"}
    ]},
    {"compound": "Sodium 2,6-diamino-(N,N,N′,N′-tetraacetate)-3-nitroanisole [compound 4]", "values": [
      {"measurement": "effect of Zn^2+ on fluorescence emission intensity", "setting": "[2]; 200 μM compound", "value": "substantially enhanced"},
      {"measurement": "effect of Mg^2+ on fluorescence emission intensity", "setting": "[3]", "value": "slightly quenched"},
      {"measurement": "effect of Ca^2+ on fluorescence emission intensity", "setting": "[4]", "value": "slightly quenched"},
      {"measurement": "effect of Cu^2+ on fluorescence emission intensity", "setting": "[5]", "value": "significantly quenched"},
      {"measurement": "effect of Ni^2+ on fluorescence emission intensity", "setting": "[6]", "value": "significantly quenched"},
      {"measurement": "effect of Co^2+ on fluorescence emission intensity", "setting": "[7]", "value": "significantly quenched"},
      {"measurement": "effect of Cd^2+ on fluorescence emission intensity", "setting": "[9]", "value": "substantially enhanced"},
      {"measurement": "effect of Hg^2+ on fluorescence emission intensity", "setting": "[10]", "value": "no discernable effect"}
    ]},
    {"compound": "Zinc-2,6-diamino-(N,N,N′,N′-tetraacetate)-4-methylanisole [compound 1-Zn complex]", "values": [
      {"measurement": "solubility", "setting": "Solubility", "value": "low solubility"},
      {"measurement": "solubility in water and methanol", "setting": "Solubility; water and methanol", "value": "low solubility"}
    ]}
  ]
}
